US9447120B2, “Crystalline forms of zinc trisodium pentetic acid” (Hameln Pharma Plus GmbH, priority 2013, dated 2016)

Legend:
[1] = Determination of the hygroscopicity (weight increase in a stability chamber); assay type: physicochemical
Method: Here, the samples used were each subjected to the same pre-drying process (cf. Examples 3 and 4). The samples were exposed in each case for the time period stated in the Table at 25° C. and an air humidity of 65% relative air humidity.
The hygroscopicity of Zn-DTPA was checked by measuring the weight increase in a controlled environment. At air temperature (25±2°) C. and (60±5)% air humidity in a stability chamber (Thermo TEC), the weights of two samples (5.000 g) in each case were checked (Analytical balance, XS 205, Mettler Toledo). The weight was checked after 1, 2, 4, 6, 8, 24 and 48 hours.

[2] = lyophilized powder, over 24 h; cited from earlier work
[3] = Table 6, time 1 h, 25° C., 65% relative air humidity
[4] = Table 6, time 2 h, 25° C., 65% relative air humidity
[5] = Table 6, time 4 h, 25° C., 65% relative air humidity
[6] = Table 6, time 6 h, 25° C., 65% relative air humidity
[7] = Table 6, time 8 h, 25° C., 65% relative air humidity
[8] = Table 6, time 24 h, 25° C., 65% relative air humidity
[9] = Table 6, time 48 h, 25° C., 65% relative air humidity

Row | SMILES | Mean mass increase [1, 3] | Mean mass increase [1, 4] | Mean mass increase [1, 5] | Mean mass increase [1, 6] | Mean mass increase [1, 7] | Mean mass increase [1, 8] | Mean mass increase [1, 9] | also measured
1 | O=C([O-])CN(CCN(CC(=O)[O-])CC(=O)[O-])CCN(CC(=O)[O-])CC(=O)[O-].[Na+].[Na+].[Na+].[Zn+2] [conventional Zn-DTPA, trisodium zinc diethylenetriaminepentaacetate] | – | – | – | – | – | – | – | behaviour due to hygroscopy ([1]; sufficiently long exposure to air humidity): deliquesces
2 | O=C([O-])CN(CCN(CC(=O)[O-])CC(=O)[O-])CCN(CC(=O)[O-])CC(=O)[O-].[Na+].[Na+].[Na+].[Zn+2] [Form I, trisodium zinc diethylenetriaminepentaacetate] | 0.32% | 0.54% | 0.92% | 1.34% | 1.64% | 3.91% | 6.81% | –
3 | O=C([O-])CN(CCN(CC(=O)[O-])CC(=O)[O-])CCN(CC(=O)[O-])CC(=O)[O-].[Na+].[Na+].[Na+].[Zn+2] [Zn-DTPA, trisodium zinc diethylenetriaminepentaacetate] | – | – | – | – | – | – | – | water absorbed [2]: more than 10 % by weight
4 | O=C([O-])CN(CCN(CC(=O)[O-])CC(=O)[O-])CCN(CC(=O)[O-])CC(=O)[O-].[Na+].[Na+].[Na+].[Zn+2] [Form II, B, trisodium zinc diethylenetriaminepentaacetate] | 0.41% | 0.72% | 1.29% | 1.97% | 2.43% | 5.18% | 5.25% | –

Further lines, with some results ahead:

Row | Mean mass increase [1, 3] | Mean mass increase [1, 4] | Mean mass increase [1, 5] | Mean mass increase [1, 6] | Mean mass increase [1, 7] | Mean mass increase [1, 8] | Mean mass increase [1, 9] | SMILES | also measured
5 | 0.56% | 0.97% | 1.73% | 2.61% | 3.26% | 7.82% | 12.02% | O=C([O-])CN(CCN(CC(=O)[O-])CC(=O)[O-])CCN(CC(=O)[O-])CC(=O)[O-].[Na+].[Na+].[Na+].[Zn+2] [Amorph Il, trisodium zinc diethylenetriaminepentaacetate] | Mean mass increase ([1]; Table 1, time 1 h, product obtained by prior-art route, listed as Batch 2): 0.56%; Mean mass increase ([1]; Table 1, time 2 h, product obtained by prior-art route, listed as Batch 2): 0.97%; Mean mass increase ([1]; Table 1, time 4 h, product obtained by prior-art route, listed as Batch 2): 1.73%; Mean mass increase ([1]; Table 1, time 6 h, product obtained by prior-art route, listed as Batch 2): 2.61%; Mean mass increase ([1]; Table 1, time 8 h, product obtained by prior-art route, listed as Batch 2): 3.26%; Mean mass increase ([1]; Table 1, time 24 h, product obtained by prior-art route, listed as Batch 2): 7.82%; Mean mass increase ([1]; Table 1, time 48 h, product obtained by prior-art route, listed as Batch 2): 12.02%
6 | 0.34% | 0.57% | 1.00% | 1.49% | 1.84% | 4.42% | 5.07% | O=C([O-])CN(CCN(CC(=O)[O-])CC(=O)[O-])CCN(CC(=O)[O-])CC(=O)[O-].[Na+].[Na+].[Na+].[Zn+2] [Form II, A, trisodium zinc diethylenetriaminepentaacetate] | –
7 | 0.51% | 0.89% | 1.56% | 2.35% | 2.95% | 7.38% | 11.92% | O=C([O-])CN(CCN(CC(=O)[O-])CC(=O)[O-])CCN(CC(=O)[O-])CC(=O)[O-].[Na+].[Na+].[Na+].[Zn+2] [Amorph I, trisodium zinc diethylenetriaminepentaacetate] | Mean mass increase ([1]; Table 1, time 1 h, product obtained by prior-art route, listed as Batch 1): 0.51%; Mean mass increase ([1]; Table 1, time 2 h, product obtained by prior-art route, listed as Batch 1): 0.89%; Mean mass increase ([1]; Table 1, time 4 h, product obtained by prior-art route, listed as Batch 1): 1.56%; Mean mass increase ([1]; Table 1, time 6 h, product obtained by prior-art route, listed as Batch 1): 2.35%; Mean mass increase ([1]; Table 1, time 8 h, product obtained by prior-art route, listed as Batch 1): 2.95%; Mean mass increase ([1]; Table 1, time 24 h, product obtained by prior-art route, listed as Batch 1): 7.38%; Mean mass increase ([1]; Table 1, time 48 h, product obtained by prior-art route, listed as Batch 1): 11.92%
